Measurements reported in patent US20230044304A1, “Nitric oxide generation, dilution, analysis, and topical application compositions, systems, apparatus and methods” (SYK Technologies LLC, priority 2010, published 2023).
Entries after “also recorded” stand apart in the source; their conditions may differ.

Legend:
[1] = tested on: bacteria on a surface, such as a person's skin; assay: Nitric oxide dose required to kill bacteria on a surface
[2] = tested on: bacteria on skin of hands; assay: Hand exposed to nitric oxide gas in a bag versus DIAL antibacterial soap, zone dilution plating; type: in vivo, human
Text: An experiment 46 used to determine the anti-microbial effectiveness of nitric oxide is illustrated in FIG. 72. In the experiment, five volunteers were selected 48. From a first hand of each volunteer, a technician using sterile gloves collected 50 a sample. This was accomplished by rubbing the back of the volunteer's hand with a sterile cotton collection swab for ten seconds. The swab was then applied 52 to a nutrient agar petri dish using the five corner or zone dilution method.
The five corner or zone dilution method involves mechanically diluting bacteria on a streak (blood agar) plate by sequentially spreading the bacteria across the plate in each of five zones. As the concentration of bacteria increases so do the number of zones containing bacteria. Bacteria on agar plate become visible as distinct circular colonies. Each colony represents an individual cell which has divided repeatedly to form a patch. The number of bacteria can be estimated by counting the number of patches or how far the bacteria is diluted by streaking it on the agar plate through the five zones.
After the sample was collected 50, the first hand was cleaned 54 using nitric oxide. This was done by placing the hand of the volunteer into a one-gallon plastic freezer bag. The bag was then inflated with nitric oxide through tubing attached to a portable nitric oxide generator. […]

Structure (SMILES): [N]=O [nitric oxide]
- dose required to kill bacteria on a surface [1]: ≥ 320 ppm
- bacterial colony count compared with washing with antibacterial soap ([2]; 1,000 ppm nitric oxide for fifteen minutes versus DIAL antibacterial soap for 2 minutes, five volunteers): superior to soaps; also recorded: lower bacterial colony count
- colony counts of bacteria exposed to nitric oxide ([2]; experiments by applicant on healthy skin): substantial reductions in colony counts
